Our source for the melting point values is patent US7405228B2, “Antibacterial cyano-(substituted)-methylenepiperidinophenyl oxazolidinones targeting multiple ribonucleoprotein sites” (Wockhardt Limited, priority 2002, dated 2008).

Regarding `CCOC(=O)c1cn(CC2CN(c3ccc(N4CCC(=CC#N)CC4)c(F)c3)C(=O)O2)nn1` (stereo in doubt) [Example 26, (S)-1-{3-[4-(4-cyanomethylidene-piperidin-1-yl)-3-fluorophenyl]-2-oxo-oxazolidin-5-ylmethyl}-4-carboethoxy-1,2,3-triazole], the melting point (usually the temperature, or range, at which the solid turns liquid) was in the range of 164 to 166 °C. The result for `CC(=O)NC[C@H]1CN(c2ccc(N3CCC(C(C#N)COS(C)(=O)=O)CC3)c(F)c2)C(=O)O1` (stereo partly drawn) [Example 134, (S)-N-{3-[4-(4-(1-cyano-2-methanesulphonyloxy)-ethylpiperidin-1-yl)-3-fluorophenyl]-2-oxo-oxazolidin-5-ylmethyl}-acetamide] reads 136 to 138 °C; that for `CC(=O)NC[C@H]1CN(c2ccc(N3CC/C(=C\C#N)C(C)C3)c(F)c2)C(=O)O1` (stereo partly drawn) [Example 63, (S)-N-{3-[4-(4-cyanomethylidene-3-methylpiperidin-1-yl)-3-fluorophenyl]-2-oxo-oxazolidin-5-ylmethyl}-acetamide], 152 to 153 °C. `CC(C)COC(=O)NC[C@H]1CN(c2ccc(N3CC/C(=C\C#N)C(F)C3)c(F)c2)C(=O)O1` (stereo partly drawn) [Example 58, (S)-N-{3-[4-(4-cyanomethylidene-3-fluoropiperidin-1-yl)-3-fluorophenyl]-2-oxo-oxazolidin-5-ylmethyl}-isobutylcarbamate] displayed a melting point of 162 to 164 °C.

Take `CC(=O)NC[C@H]1CN(c2ccc(N3CCC(=C(C#N)n4cncn4)CC3)c(F)c2)C(=O)O1` [Example 104, (S)-N-{3-[4-(4-(1-cyano-1-(1,2,4-triazol-1-yl)-methylidene)-piperidin-1-yl)-3fluorophenyl]-2-oxo-oxazolidin-5-ylmethyl}-acetamide]: the melting point lay within 194 to 196 °C. The result for `CC(C#N)=C1CCN(c2ccc(N3C[C@H](CNC=O)OC3=O)cc2F)CC1` [Example 73, (S)-N-{3-[4-(4-(1-cyanoethylidene)-piperidin-1-yl)-3-fluorophenyl]-2-oxo-oxazolidin-5-ylmethyl}-formamide] reads 188 to 190 °C; that for `COC(=O)c1cn(C[C@H]2CN(c3ccc(N4CCC(C(C#N)CO)CC4)c(F)c3)C(=O)O2)nn1` (stereo partly drawn) [Example 150, (S)-1-{3-[4-(4-(1-cyano-2-hydroxy)-ethylpiperidin-1-yl)-3-fluorophenyl]-2-oxo-oxazolidin-5-ylmethyl}-4-methoxycarbonyl-1,2,3-triazole], 204 to 206 °C. The result for `CC(=O)NC[C@H]1CN(c2ccc(N3CCC(=C(C#N)n4ccnc4C)CC3)c(F)c2)C(=O)O1` [Example 103, (S)-N-{3-[4-(4-(1-cyano-1-(2-methyl-imidazol-1-yl)-methylidene)-piperidin-1-yl)-3-fluorophenyl]-2-oxo-oxazolidin-5-ylmethyl}-acetamide] reads 204 to 206 °C. For `N#CC=C1CCN(c2ccc(N3CC(Cn4cc(C#N)nn4)OC3=O)cc2)CC1` (stereo in doubt) [Example 5, (S)-1-{3-[4-(4-cyanomethylidene-piperidin-1-yl)-phenyl]-2-oxo-oxazolidin-5-ylmethyl}-4-cyano-1,2,3-triazole] the value was 186 to 188 °C; for `CC(C)(C)C(=O)OCC(=O)NC[C@H]1CN(c2ccc(N3CCC(=CC#N)CC3)c(F)c2)C(=O)O1` [Example 14, (S)-N-{3-[4-(4-cyanomethylidene-piperidin-1-yl)-3-fluorophenyl]-2-oxo-oxazolidin-5-ylmethyl}-2-pivolyloxyacetamide], 91 to 93 °C. Molecule `N#CC=C1CCN(c2ccc(N3C[C@H](CNC(=O)C(F)F)OC3=O)cc2F)CC1` [Example 29, (S)-N-{3-[4-(4-cyanomethylidene-piperidin-1-yl)-3-fluorophenyl]-2-oxo-oxazolidin-5-ylmethyl}-difluoroacetamide] registered a melting point of 162 to 164 °C.

In turn, `CS(=O)(=O)OC[C@H]1CN(c2ccc(N3CCC(C(C#N)CO)CC3)c(F)c2)C(=O)O1` (stereo partly drawn) [Example 154, (R)-{3-[4-(4-(1-cyano-2-hydroxy)-ethylpiperidin-1-yl)-3-fluorophenyl]-2-oxo-oxazolidin-5-ylmethyl}-methanesulphonate] displayed a melting point of 144 to 146 °C. As to `N#CC=C1CCN(c2ccc(N3CC(CN=[N+]=[N-])OC3=O)cc2)CC1` (stereo in doubt) [Example 1, (S)-{3-[4-(4-cyanomethylidene-piperidin-1-yl)-phenyl]-2-oxo-oxazolidin-5-ylmethyl}-azide], the melting point was 80 to 82 °C. The result for `C=CCN(C#N)C[C@H]1CN(c2ccc(N3CCC(=CC#N)CC3)c(F)c2)C(=O)O1` [Example 22, (S)-{N-{3-[4-(4-cyanomethylidene-piperidin-1-yl)-3-fluorophenyl]-2-oxo-oxazolidin-5-ylmethylamino}N-cyano}-prop-2-ene] reads 111 to 113 °C; that for `N#CC=C1CCN(c2ccc(N3C[C@H](CNC(=O)C(N)CO)OC3=O)cc2F)CC1` (stereo partly drawn) [Example 42, (2S, 5S)-{N-{3-[4-(4-cyanomethylidene-piperidin-1-yl)-3-fluorophenyl]-2-oxo-oxazolidin-5-ylmethyl}-3-hydroxypropionamid-2-yl}-amine], 88 to 90 °C; that for `CC(C#N)=C1CCN(c2ccc(N3C[C@H](CNC(=O)OCC(C)C)OC3=O)cc2F)CC1` [Example 81, (S)-N-{3-[4-(4-(1-cyanoethylidene)-piperidin-1-yl)-3-fluorophenyl]-2-oxo-oxazolidin-5-ylmethyl}-isobutylcarbamate], 158 to 160 °C. For `CS(=O)(=O)OC[C@H]1CN(c2ccc(N3CC/C(=C\C#N)C(F)C3)c(F)c2)C(=O)O1` (stereo partly drawn) [Example 59, (R)-{3-[4-(4-cyanomethylidene-3-fluoropiperidin-1-yl)-3-fluorophenyl]-2-oxo-oxazolidin-5-ylmethyl}-methanesulphonate] the value was 116 to 118 °C; for `CCOC(=O)c1cn(C[C@H]2CN(c3ccc(N4CCC(C(C#N)CO)CC4)c(F)c3)C(=O)O2)nn1` (stereo partly drawn) [Example 151, (S)-1-{3-[4-(4-(1-cyano-2-hydroxy)-ethylpiperidin-1-yl)-3-fluorophenyl]-2-oxo-oxazolidin-5-ylmethyl}-4-ethoxycarbonyl-1,2,3-triazole], 170 to 172 °C. For the molecule `CS(=O)(=O)OC[C@H]1CN(c2ccc(N3CCC(=CC#N)CC3)cc2)C(=O)O1` [Example 6, (R)-{3-[4-(4-cyanomethylidene-piperidin-1-yl)-phenyl]-2-oxo-oxazolidin-5-ylmethyl}-methanesulphonate], the melting point is 120 to 122 °C. For `N#CCC1CCN(c2ccc(N3CC(CN=[N+]=[N-])OC3=O)cc2)CC1` (stereo in doubt) [Example 122, (S)-{3-[4-(4-cyanomethyl-piperidin-1-yl)-phenyl]-2-oxo-oxazolidin-5-ylmethyl}-azide] the value was 85 to 86 °C; for `CNC(=S)NC[C@H]1CN(c2ccc(N3CCC(=CC#N)CC3)c(F)c2)C(=O)O1` [Example 52, (S)-N-{3-[4-(4-cyanomethylidene-piperidin-1-yl)-3-fluorophenyl]-2-oxo-oxazolidin-5-ylmethyl}-methylthiocarbamide], 191 to 192 °C.
